Experimental data as given in article PMC5947694, “Structure of the mouse acidic amino acid decarboxylase GADL1” (Acta Crystallographica. Section F, Structural Biology …, 2018).

B1: mouse glutamic acid decarboxylase-like protein 1 (MmGADL1), His6-tagged, residues 1-502 (enzyme)
chain: MGPHHHHHHLESTSLYKKAGSENLYFQGMTPGKKIPIFVDGVVLNGPQTDVKAGEKFVEEACRLIMEEVVLKATDVNEKVCEWQPPEQLRQLLDLEMRDTGESQDKLLKLCQDVIHFSVKTNHPRFFNQLYAGLDYYSLAARIITEALNPSIYTYEVSPVFLLVEEAVLKKMIECVGWKEGDGIFNPGGSVSNMCAMNLARYRHCPDIKEKGLSGLPRLILFTSAECHYSMKKAASFLGIGTQNVYFVETDGRGKMIPEDLEKQIWQARQEGAVPFLVCATSGTTVLGAFDPLDEIAEVCERHGLWLHVDASWGGSALVSRKHRRLLHGIHRADSVAWNPHKMLMAGIQCSALLVKDKSDLLKKCYSAKATYLFQQDKFYDVSYDTGDKSIQCSRRPDAFKFWMTWKALGTSGLEERVNRAFALSRYLVDEIKKREGFKLLMEPEYTNVCFWYIPPSLREMEEGPEFWRKLSLVAPAIKEKMMKKGSLMLGYQPHRGKVNFFRQVVISPQVSREDMDFLLDEIDSLGRDM
modifications: PLP covalently bound to the N-epsilon atom of Lys314 through a Schiff base linkage (seen in the crystal)

How the values were obtained:
[1] = molecular target: T1, MmGADL1 (mouse glutamic acid decarboxylase-like protein 1) (Mus musculus, UniProt Q80WP8); assay: X-ray crystallography, […] Å (crystal form […]); format: binding; details: covalent; Schiff base (internal aldimine) with Lys314; active site at dimer interface, both sites occupied
T1 construct: gene Gadl1; residues 1-502, N-terminal His6 tag and TEV site kept; expressed in E. coli; homodimer; residues 11-502 built, loop about 340-350 disordered
T1 sequence (Q80WP8 49-526 isoform Q80WP8-2): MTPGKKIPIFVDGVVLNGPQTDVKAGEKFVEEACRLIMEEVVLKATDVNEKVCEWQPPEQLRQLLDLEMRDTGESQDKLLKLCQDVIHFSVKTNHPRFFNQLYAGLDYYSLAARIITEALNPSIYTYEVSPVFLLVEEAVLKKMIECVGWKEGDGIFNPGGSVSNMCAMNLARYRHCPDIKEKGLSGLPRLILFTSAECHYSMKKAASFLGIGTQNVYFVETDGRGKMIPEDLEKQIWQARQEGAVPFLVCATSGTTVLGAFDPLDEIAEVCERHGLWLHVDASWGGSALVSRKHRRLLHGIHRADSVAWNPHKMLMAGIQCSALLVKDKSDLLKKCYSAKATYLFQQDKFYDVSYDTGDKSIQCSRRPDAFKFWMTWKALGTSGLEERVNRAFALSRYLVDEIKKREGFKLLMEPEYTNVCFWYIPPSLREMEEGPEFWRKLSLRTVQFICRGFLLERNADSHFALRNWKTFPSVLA

[2] = molecular target: the molecule itself; assay: SAXS; 1.6-6.5 mg/ml in 20 mM HEPES pH 7.4, 200 mM NaCl, 293 K; molecular mass from forward scattering I(0) against a monomeric BSA standard

Row | Molecule | X-ray crystallography, 3.0 Å (crystal form 1) [1] | stoichiometry N [2]
1 | Cc1ncc(COP(=O)(O)O)c(C=O)c1O [PLP] | Both active sites in the dimer are occupied by the PLP cofactor, which is covalently bound | 
2 | B1 |  | 2 ratio to theoretical monomer
